Test results published in PubChem BioAssay (NCI).
Where “and” joins values, the source holds several entries; their conditions need not be identical. Equal values may be shown once.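 The compound was tested at five concentrations on cells cultured in 96-well plates, with a 48-hour exposure period. GI50 marks 50% less growth. At the TGI there is no net growth.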

Legend:
Test in all cases: NCI tumour cell line growth inhibition, 48 h
RXF 393 renal = system: RXF 393 renal
SF-539 CNS = system: SF-539 CNS
HCT-15 colon = system: HCT-15 colon
RPMI-8226 leukemia = system: RPMI-8226 leukemia
SNB-75 CNS = system: SNB-75 CNS
MALME-3M melanoma = system: MALME-3M melanoma
OVCAR-8 ovarian = system: OVCAR-8 ovarian
NCI-H226 lung = system: NCI-H226 lung
CAKI-1 renal = system: CAKI-1 renal
SK-MEL-5 melanoma = system: SK-MEL-5 melanoma

| SMILES | GI50 (RXF 393 renal) | TGI (RXF 393 renal) | GI50 (SF-539 CNS) | TGI (SF-539 CNS) | GI50 (HCT-15 colon) | TGI (HCT-15 colon) | GI50 (RPMI-8226 leukemia) | TGI (RPMI-8226 leukemia) | GI50 (SNB-75 CNS) | TGI (SNB-75 CNS) | GI50 (MALME-3M melanoma) | TGI (MALME-3M melanoma) | GI50 (OVCAR-8 ovarian) | TGI (OVCAR-8 ovarian) | GI50 (NCI-H226 lung) | TGI (NCI-H226 lung) | GI50 (CAKI-1 renal) [µM] | TGI (CAKI-1 renal) [µM] | GI50 (SK-MEL-5 melanoma) | TGI (SK-MEL-5 melanoma) |
| --- | --- | --- | --- | --- | --- | --- | --- | --- | --- | --- | --- | --- | --- | --- | --- | --- | --- | --- | --- | --- |
| CC1C(C)N(C(=O)CCl)c2ccccc2N1C(=O)CCl (centres undefined) | 0.266 µM | 0.961 µM | 1.4 µM | 2.89 µM | 0.304 µM | 1.28 µM | 0.21 µM | 0.649 µM | 1.36 µM | 2.84 µM | 0.365 µM | 1.32 µM | 0.55 µM | 12.5 µM | 1.11 µM | 3.52 µM | 0.186 | 0.355 | 1.27 µM | 2.85 µM |
| Cc1cccc(C2SCc3nc4ccccc4n32)c1 (centres undefined) |  | 43.9 µM |  | > 100 µM |  | 54.5 µM |  | > 100 µM |  | 20.7 µM |  | 49.6 µM |  | > 100 µM |  | 60.9 µM |  | > 100 |  | 28.3 µM |
| CCc1ccc(CCC(=O)Nc2ncc(Cc3ccc(Cl)cc3)s2)o1 | 0.226 µM | 0.675 µM | 0.245 µM | 0.727 µM | 0.356 µM | > 100 µM | 0.372 µM | > 100 µM | 0.195 µM | 0.771 µM | 0.466 µM | > 100 µM | 0.572 µM | > 100 µM |  | > 100 µM | 0.451 | > 100 | 0.377 µM | > 100 µM |
| CCOC(=O)Oc1cc2c(c(OC)c1OC)-c1ccc(OC)c(=O)cc1C(NC(C)=O)CC2 (centres undefined) |  | 0.564 µM |  | 0.232 µM |  | > 100 µM |  | 70.6 µM |  | > 16.9 µM |  | > 100 µM |  | 19.7 µM |  | 0.787 µM |  | > 100 |  | 0.14 µM |
| CC1=C2[C@@H](CC1)[C@]1(C)O[C@@](C(C)C)(C[C@H]1OC(=O)CO)[C@H]2OC(=O)C1CC1c1ccccc1 (some centres undefined) | 0.405 µM | 17.4 µM | 17.1 µM | 33.8 µM | 13 µM | 27.6 µM | 12.8 µM | 42.6 µM | 13.7 µM | 30.4 µM | 16.5 µM | 33.4 µM | 12.9 µM | 35.6 µM | 16.2 µM | 35.7 µM | 11.4 | 24 | 15.2 µM | 28.8 µM |
| COc1cc(Nc2ncc(-c3ccccc3)o2)cc(OC)c1 | 8.4 µM | > 25 µM | > 25 µM | > 25 µM | 18.6 µM | > 25 µM | > 25 µM | > 25 µM | 3.19 µM | > 25 µM | > 25 µM | > 25 µM | > 25 µM | > 25 µM | > 12.5 µM | > 25 µM | > 19.2 | > 25 | > 25 µM | > 25 µM |
| COc1ccc(C/C(=C(\C)c2ccc(OCCN3CCCC3)cc2)c2ccc(OCCN3CCCC3)cc2)cc1 | 1.48 µM | 2.88 µM | 1.8 µM | 3.25 µM | 1.51 µM | 3.05 µM | 1.87 µM | 4.3 µM | 1.59 µM | 3.22 µM | 1.67 µM | 3.26 µM | 2.05 µM | 4.38 µM | 2.54 µM | 7.64 µM | 1.66 | 3.09 | 1.72 µM | 3.11 µM |
| COc1ccc(Cc2coc3ccccc3c2=O)cc1OC |  | > 100 µM |  | > 100 µM |  | > 100 µM |  | > 100 µM |  | > 100 µM |  | > 100 µM |  | > 100 µM |  | > 100 µM |  | 49.5 |  | 67.8 µM |
| O=C([CH-]C(=O)c1ccccc1)c1ccccc1.[CH-]1CCCCC1.[CH-]1CCCCC1.[CH-]1CCCCC1.[Sn+4] | 2.71 µM | 10.1 µM | 10.4 µM | 27 µM | 5.67 µM | 18.4 µM | 2.32 µM | 5.22 µM | 7.09 µM | 21.3 µM | 8.75 µM | 22.1 µM | 5.47 µM | 55.4 µM | 5.73 µM | 39.3 µM | 4.52 | 18.1 | 6.58 µM | 19.1 µM |
| CNC(=O)c1cc(Oc2ccc(NC(=O)Nc3ccc(Cl)c(C(F)(F)F)c3)c(F)c2)ccn1 | 3.83 µM and 2.91 µM | 17 µM and > 10 µM | 2.15 µM and 1.45 µM | 10.7 µM and > 10 µM | 3 µM and 2.35 µM | > 32.9 µM and 9.96 µM | 1.71 µM and 1.83 µM | 4.96 µM and 7.32 µM | 1.71 µM and 1.67 µM | 7.01 µM and > 10 µM | 0.76 µM and 1.95 µM | 5.87 µM and > 10 µM | 2.39 µM and 2.31 µM | > 20.8 µM and 8.28 µM | 2.15 µM and 0.988 µM | 8.01 µM and 8.05 µM | 2.95 | > 30.4 | 1.5 µM and 1.35 µM | 2.94 µM and 3.16 µM |
